Data: ChEMBL document CHEMBL5316302, “Deciphering Nonbioavailable Substructures Improves the Bioavailability of Antidepressants by Serotonin Transporter” (J Med Chem, 2023)
Active and inactive are the calls of the source. No cut-off for these calls is given here.

Assays:
[1] = target: Sodium-dependent serotonin transporter (Homo sapiens, UniProt P31645); assay: Inhibition of SERT receptor (unknown origin)
[2] = Cmax in Sprague-Dawley rat at 2.5 mg/kg, po measured upto 24 hrs by LC-MS/MS analysis; assay type: ADME, organism-based; design: dose 2.5 mg/kg, time < 24 hrs, route po; details: in vivo
[3] = Clearance in Beagle dog at 1 mg/kg, iv measured upto 24 hrs by LC-MS/MS analysis; assay type: ADME, organism-based, Canis lupus familiaris; details: in vivo
[4] = Cmax in Beagle dog at 5 mg/kg, po measured upto 24 hrs by LC-MS/MS analysis; assay type: ADME, organism-based, Canis lupus familiaris; design: time < 24 hrs, dose 5 mg/kg, route po; details: in vivo
[5] = Oral bioavailability in Sprague-Dawley rat at 5 mg/kg measured upto 24 hrs by LC-MS/MS analysis; assay type: ADME, organism-based; details: in vivo
[6] = Clearance in Sprague-Dawley rat at 1 mg/kg, iv measured upto 24 hrs by LC-MS/MS analysis; assay type: ADME, organism-based; details: in vivo; for CL: iv, 1 mg/kg, 24 h
[7] = AUC (0 to t) in Sprague-Dawley rat at 2.5 mg/kg, po measured upto 24 hrs by LC-MS/MS analysis; assay type: ADME, organism-based; design: dose 2.5 mg/kg, time < 24 hrs, route po; details: in vivo
[8] = AUC (0 to t) in Beagle dog at 5 mg/kg, po measured upto 24 hrs by LC-MS/MS analysis; assay type: ADME, organism-based, Canis lupus familiaris; design: dose 5 mg/kg, time < 24 hrs, route po; details: in vivo
[9] = Volume of distribution at steady state in Sprague-Dawley rat at 1 mg/kg, iv measured upto 24 hrs by LC-MS/MS analysis; assay type: ADME, organism-based; details: in vivo, read-out: Vdss
[10] = Cmax in Beagle dog at 1 mg/kg, iv measured upto 24 hrs by LC-MS/MS analysis; assay type: ADME, organism-based, Canis lupus familiaris; design: dose 1 mg/kg, time < 24 hrs, route iv; details: in vivo
[11] = Volume of distribution at steady state in Beagle dog at 1 mg/kg, iv measured upto 24 hrs by LC-MS/MS analysis; assay type: ADME, organism-based, Canis lupus familiaris; details: in vivo, read-out: Vdss
[12] = AUC (0 to t) in Beagle dog at 1 mg/kg, iv measured upto 24 hrs by LC-MS/MS analysis; assay type: ADME, organism-based, Canis lupus familiaris; design: dose 1 mg/kg, time < 24 hrs, route iv; details: in vivo
[13] = Half life in Sprague-Dawley rat at 2.5 mg/kg, po measured upto 24 hrs by LC-MS/MS analysis; assay type: ADME, organism-based; details: in vivo
[14] = Half life in Beagle dog at 1 mg/kg, iv measured upto 24 hrs by LC-MS/MS analysis; assay type: ADME, organism-based, Canis lupus familiaris; details: in vivo
[15] = Cmax in Sprague-Dawley rat at 1 mg/kg, iv measured upto 24 hrs by LC-MS/MS analysis; assay type: ADME, organism-based; design: time < 24 hrs, dose 1 mg/kg, route iv; details: in vivo
[16] = Half life in Sprague-Dawley rat at 1 mg/kg, iv measured upto 24 hrs by LC-MS/MS analysis; assay type: ADME, organism-based; details: in vivo
[17] = Half life in Beagle dog at 5 mg/kg, po measured upto 24 hrs by LC-MS/MS analysis; assay type: ADME, organism-based, Canis lupus familiaris; details: in vivo
[18] = Oral bioavailability in Sprague-Dawley rat at 2.5 mg/kg measured upto 24 hrs by LC-MS/MS analysis; assay type: ADME, organism-based; details: in vivo
[19] = AUC (0 to t) in Sprague-Dawley rat at 1 mg/kg, iv measured upto 24 hrs by LC-MS/MS analysis; assay type: ADME, organism-based; design: time < 24 hrs, dose 1 mg/kg, route iv; details: in vivo; for AUCt: 24 h
[20] = Drug concentration in Sprague-Dawley rat brain at 10 mg/kg, ip measured at 15 min by LC/MS-MS analysis; assay type: ADME, organism-based; details: read-out: Ct
Rattus norvegicus [21] = assay: Antidepressant activity in Sprague-Dawley rat assessed as reduction in immobility time at 3 mg/kg ip measured after 15 mins by forced swim test; assay type: functional; details: 0.25 h
[22] = Ratio of drug concentration in brain to plasma in Sprague-Dawley rat at 10 mg/kg, ip measured at 60 min by LC-MS/MS analysis; assay type: ADME, organism-based; details: read-out: BPR
[23] = Drug concentration in Sprague-Dawley rat plasma at 10 mg/kg, ip measured at 60 min by LC/MS-MS analysis; assay type: ADME, organism-based
[24] = Ratio of drug concentration in brain to plasma in Sprague-Dawley rat at 10 mg/kg, ip measured at 120 min by LC-MS/MS analysis; assay type: ADME, organism-based; details: read-out: BPR
[25] = Drug concentration in Sprague-Dawley rat plasma at 10 mg/kg, ip measured at 120 min by LC/MS-MS analysis; assay type: ADME, organism-based
[26] = Drug concentration in Sprague-Dawley rat brain at 10 mg/kg, ip measured at 60 min by LC/MS-MS analysis; assay type: ADME, organism-based; details: read-out: Ct
[27] = Drug concentration in Sprague-Dawley rat plasma at 10 mg/kg, ip measured at 15 min by LC/MS-MS analysis; assay type: ADME, organism-based
Hypothalamus [28] = assay: Inhibition of PCA-induced serotonin depletion in Sprague-Dawley rat hypothalamus assessed as recovery of 5-HT concentration at 3 mg/kg, ip by HPLC analysis; assay type: functional, organism-based
[29] = Ratio of drug concentration in brain to plasma in Sprague-Dawley rat at 10 mg/kg, ip measured at 15 min by LC-MS/MS analysis; assay type: ADME, organism-based; details: read-out: BPR
Hypothalamus [30] = assay: Inhibition of PCA-induced serotonin depletion in Sprague-Dawley rat hypothalamus assessed as recovery of 5-HT concentration at 10 mg/kg, ip by HPLC analysis (Rvb= 200 ng/g); assay type: functional
[31] = Drug concentration in Sprague-Dawley rat brain at 10 mg/kg, ip measured at 120 min by LC/MS-MS analysis; assay type: ADME, organism-based; details: read-out: Ct
[32] = Oral bioavailability in human at 2.5 to […]; assay type: ADME, organism-based; details: in vivo, dose lower 2.5 mg/kg
Hypothalamus [33] = assay: Inhibition of PCA-induced serotonin depletion in Sprague-Dawley rat hypothalamus assessed as recovery of 5-HT concentration at 1 mg/kg, ip by HPLC analysis; assay type: functional, organism-based
Rattus norvegicus [34] = assay: Antidepressant activity in Sprague-Dawley rat assessed as reduction in immobility time at 10 mg/kg ip measured after 15 mins by forced swim test; assay type: functional; details: 0.25 h
Rattus norvegicus [35] = assay: Antidepressant activity in ip dosed Sprague-Dawley rat assessed as reduction in immobility time measured after 15 mins by forced swim test; assay type: functional, organism-based; details: dose 3-10 mg/kg

Sequence of Sodium-dependent serotonin transporter (P31645 whole entry): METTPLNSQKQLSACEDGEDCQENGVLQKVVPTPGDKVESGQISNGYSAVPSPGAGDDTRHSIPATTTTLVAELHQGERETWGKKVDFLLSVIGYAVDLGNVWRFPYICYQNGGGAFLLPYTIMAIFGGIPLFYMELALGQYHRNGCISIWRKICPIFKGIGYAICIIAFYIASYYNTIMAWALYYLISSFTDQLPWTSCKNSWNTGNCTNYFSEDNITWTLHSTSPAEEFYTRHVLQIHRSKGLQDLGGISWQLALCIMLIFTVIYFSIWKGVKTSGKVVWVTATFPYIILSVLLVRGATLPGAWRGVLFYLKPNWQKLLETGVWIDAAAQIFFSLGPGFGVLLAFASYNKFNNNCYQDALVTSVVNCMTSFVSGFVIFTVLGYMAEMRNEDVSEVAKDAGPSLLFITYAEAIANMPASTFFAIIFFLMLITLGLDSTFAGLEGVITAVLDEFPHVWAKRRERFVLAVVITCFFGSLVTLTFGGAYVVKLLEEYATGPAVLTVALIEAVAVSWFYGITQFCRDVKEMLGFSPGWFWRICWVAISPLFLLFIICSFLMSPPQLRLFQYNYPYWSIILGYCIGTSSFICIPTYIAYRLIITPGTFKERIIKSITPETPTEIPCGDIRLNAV

SMILES	IC50 [1] [pM]	Cmax [2] [ng/mL]	CL [3] [mL/min/kg]	Cmax [4] [ng/mL]	bioavailability [5] [%]	CL [6] [mL/min/kg]	AUC(0-t) at 24 h [7] [ng·h/mL]	AUC(0-t) at 24 h [8] [ng·h/mL]	Vd [9] [L/kg]	Cmax [10] [ng/mL]	Vd [11] [L/kg]	AUCt [12] [ng·h/mL]	half-life [13] [h]	half-life [14] [h]	Cmax [15] [ng/mL]	half-life [16] [h]	half-life [17] [h]	bioavailability [18] [%]	AUCt [19] [ng·h/mL]	also measured
COc1cc(F)ccc1-c1cnc(N2CCN(CCCCc3c[nH]c4ccc(C#N)cc34)CC2)nc1	< 2000																			
N#Cc1ccc2[nH]cc(CCCCN3CCN(c4ncc(-c5cccc(C(N)=O)c5)cn4)CC3)c2c1	350	241	118	662	37.2	382	706	4310	2.33	1100	2.13	2330	1.95	4.68	400	1.59	4.46	39.2	722	
N#Cc1ccc2[nH]cc(CCCCN3CCN(c4ncc(-c5ccc(Cl)cc5)cn4)CC3)c2c1	320	207	61	820	47.8	125	2950	6800	5.46	536	5.52	2840	9.73	20.8	444	9.52	15.7	52.6	1870	
COc1ccccc1-c1cnc(N2CCN(CCCCc3c[nH]c4ccc(C#N)cc34)CC2)nc1	< 2000																			
N#Cc1ccc2[nH]cc(CCCCN3CCN(c4ccc5oc(C(N)=O)cc5c4)CC3)c2c1 [VILAZODONE]		173		454	52.5		443	2020	3.74	488	2.14	791	2.9	1.32		1.45	2.15	47.5		concentration at 0.25 h [20]: 190 ng/g; Time (Rattus norvegicus [21]): 100 s; clearance ([6]; Sprague-Dawley): 40.2 mL/min/kg; Kp at 1 h [22]: 0.46; concentration at 1 h [23]: 1330 ng/mL; Kp at 2 h [24]: 0.53; concentration at 2 h [25]: 861 ng/mL; concentration at 1 h [26]: 606 ng/g; concentration at 0.25 h [27]: 1330 ng/mL; Activity (Hypothalamus [28]): Active; Kp at 0.25 h [29]: 0.56; Activity (Hypothalamus [30]): 400 ng/g; concentration at 2 h [31]: 457 ng/g; AUC(0-t) at 24 h ([19]; Sprague-Dawley): 409 ng·h/mL
Cc1ccc(Sc2ccccc2N2CCNCC2)c(C)c1 [VORTIOXETINE]																				bioavailability [32]: 75%
N#Cc1ccc2[nH]cc(CCCCN3CCN(c4ncc(-c5ccc(F)cc5)cn4)CC3)c2c1	< 2000																			
N#Cc1ccc2[nH]cc(CCCCN3CCN(c4ncc(-c5ccc(F)cc5F)cn4)CC3)c2c1	580	180	85.7	794	53.5	193	2790	7540	6.41	520	3.4	2820	7.28	4.39	193	7.53	16.4	83.3	1340	concentration at 0.25 h [20]: 459 ng/g; Activity (Hypothalamus [33]): Active; Kp at 1 h [22]: 3.45; concentration at 1 h [23]: 651 ng/mL; Kp at 2 h [24]: 3.17; Time (Rattus norvegicus [34]): <100 s; concentration at 2 h [25]: 935 ng/mL; concentration at 1 h [26]: 2240 ng/g; concentration at 0.25 h [27]: 253 ng/mL; Activity (Rattus norvegicus [35]): Dose-Dependent Effect; Kp at 0.25 h [29]: 1.82; Activity (Hypothalamus [30]): 500 ng/g; concentration at 2 h [31]: 2960 ng/g
N#Cc1ccc2[nH]cc(CCCCN3CCN(c4ncc(-c5ccc(C(N)=O)cc5)cn4)CC3)c2c1	< 2000																			
